The subject of one data set is HIV-1. The data set is described as follows: inhibition of HIV-1; reduction of cytopathogenic effect in virus-infected Leu-3a-positive CEM cells (MTT assay). The data set is classed as cell-based, strain HTVL-IIIB. To be noted: Human immunodeficiency virus 1, CCRF-CEM, multiplicity of infection 0.1, MTT read on 7th to 9th day post-infection. As to the method:
Inhibitory activity against HIV-1 was shown by tests involving plating of susceptible human host cells which are syncytium-sensitive with and without virus in microculture plates, adding various concentrations of the test compound, incubating the plates for 7 to 9 days (during which time infected, non-drug treated control cells are largely or totally destroyed by the virus), and then determining the remaining number of viable cells with a colorometric endpoint.
Various illustrative compounds synthesized above were tested for inhibition of HIV-1 in a test which measured reduction of cytopathogenic effect in virus-infected syncytium-sensitive Leu-3a-positive CEM cells grown in tissue culture as follows:
Tissue culture plates were incubated at 37° C. in a humidified, 5% CO2 atmosphere and observed microscopically for toxicity and/or cytopathogenic effect (CPE). At 1 hour prior to infection each test article was prepared from the frozen stock, and a 20 μl volume of each dilution (prepared as a 10× concentration) was added to the appropriate wells of both infected and uninfected cells.
Assays were done in 96-well tissue culture plates. CEM cells were treated with polybrene at a concentration of 2 μg/ml, and an 80 μl volume of cells (1×10^4 cells) was dispensed into each well. A 100 μl volume of each test article dilution (prepared as a 2× concentration) was added to 5 wells of cells, and the cells were incubated at 37° C. for 1 hour. A frozen culture of HIV-1, strain HTVL-IIIB, was diluted in culture medium to a concentration of 5×10^4 TCID50 per ml, and a 20 μl volume (containing 10^3 TCID50 of virus) was added to 3 of the wells for each test article concentration. […] A 20 μl volume of normal culture medium was added to the remaining wells to allow evaluation of cytotoxicity. Each plate contained 6 wells of untreated, uninfected, cell control samples and 6 wells of untreated, infected, virus control samples.
On the 7th to 9th day post-infection, the cells in each well were resuspended and a 100 μl sample of each cell suspension was removed for use in an MTT assay. A 20 μl volume of a 5 mg/ml solution of 3-(4,5-dimethylthiazol-2-yl)-2,5-diphenyltetrazolium bromide (MTT) was added to each 100 μl cell suspension, and the cells were incubated at 37° C. in 5% CO2 for 4 hours. […] A 100 μl volume of a solution of 10% sodium dodecyl sulfate in 0.01N hydrochloric acid was added to each sample, and the samples were incubated overnight. The absorbance at 590 nm was determined for each sample using a Molecular Devices Vmax microplate reader. This assay detects drug-induced suppression of viral CPE, as well as drug cytotoxicity, by measuring the generation of MTT-formazan by surviving cells.

A short description of data set [1]: biological half-life in rat hepatic S9 preparation. The note with it: liver s9, rat hepatic S9, approximately 2 mcg/mL, 37° C. The format is in vitro ADME. How it is done: Various illustrative compounds synthesized in Examples above were tested for biological half-life. Compounds were incubated at a concentration of approximately 2 mcg/mL in a rat liver S9 preparation which was prepared according to standard procedures with minor modifications^1. The reactions were conducted at 37° C. in a water bath and stopped by the addition of ice cold methanol at various times ranging from 0 to 20 minutes. Aliquots of the incubations were analyzed by high performance liquid chromatography (HPLC) for the compound of interest. The analyses were conducted on a Waters HPLC system consisting of a model 510 pump and a Wisp model 712 automatic injector. Waters C18 columns were used to perform the separations. The compounds were detected by UV adsorption. The mobile phases consisted of acetonitrile and sodium phosphate buffer (40 mM, pH 3.5); specific conditions were varied slightly for each compound. Concentrations of each compound were determined with time and the rate of metabolism was determined by analyzing the data using the CSTRIP program^2.
^1 Subcellular Fractionation of Rat Liver. S. Fleischer and M. Kervina in Methods of Enzymology, Vol. XXXI, Biomembranes Part A, S. Fleischer and L. Packer Eds., pp. 6-41 (1974).
^2 A. T. Sedman and J. G. Warner, "CSTRIP. A Fortran IV Computer Program for Obtaining Initial Polyexponential Parameter Estimates.", J. Pharm. Sci. 65, 1006-1010 (1976).

[2] abbreviates: 0 to 20 minutes, read-out: Half-life.

Structures are written as SMILES. pEC50: −log10 of the molar value. Read-outs that look alike come from different tables or passages of the source. Bounds are passed on as bounds.

Take `COCCCCCCCCCCCC(=O)NCc1ccccc1` [Example 14, 12-Methoxy-N-(phenylmethyl)dodecanamide]: the pEC50 in the data set on HIV-1 is 5.42. For the same compound, the half-life in data set [1] (setting [2]) came to 2.41 min.

As to `CCOC(=O)c1cccc(NC(=O)CCCCCCCCCCCOC)c1` [Example 17, Ethyl 3-[(12-Methoxy-1-oxododecyl)amino]-benzoate], the pEC50 in the data set with HIV-1 is 5.09. The half-life in data set [1] (read-out: Half-life (not detected at initial sampling)) is less than 5 min.

Compound `COCCCCCCCCCCCC(=O)Nc1cccc(C(=O)O)c1` [Example 18, 3-[(12-Methoxy-1-oxododecyl)amino]benzoic acid] had a pEC50 in the data set on HIV-1 of less than 3.55. Further, in data set [1] (setting [2]), the half-life was determined as 8.46 min.

`CCOC(=O)[C@H](Cc1ccccc1)NC(=O)CCCCCCCCCCCOC` [Example 49, N-(12-Methoxy-1-oxododecyl)-L-phenylalanine, Ethyl ester] had a pEC50 with HIV-1 of 5.27. Further, in data set [1] (setting [2]), the half-life amounted to 1.07 min.

As to `CCCCCCCCCCOCCC(=O)N[C@H](Cc1ccccc1)C(=O)OCC` [Example 56, N-(3-(Decyloxy)-1-oxopropyl]-D-phenylalanine, Ethyl ester], the pEC50 in the data set on HIV-1 was less than 3.62. The half-life in data set [1] (setting [2]) came out at 1.97 min.

`CCOC(=O)[C@@H](CCCCNC(=O)OCc1ccccc1Cl)NC(=O)CCCCCCCCCCCOC` [Example 68, N6-[[(2-Chlorophenyl)methoxy]carbonyl]-N2-(12-methoxy-1-oxododecyl)-D-lysine, Ethyl ester] showed a pEC50 in the data set on HIV-1 of 4.88. In addition, in data set [1] (setting [2]), the half-life amounted to 8.54 min.

Take `COCCCCCCCCCCCc1nnnn1Cc1ccccc1` [Example 87A, 5-(11-Methoxyundecyl)-1-(phenylmethyl)-1H-tetrazole]: the pEC50 in the data set on HIV-1 is less than 3.54.

The compound `COCCCCCCCCCCCc1nnn(Cc2ccccc2)n1` [Example 87B, 5-(11-Methoxyundecyl)-2-(phenylmethyl)-2H-tetrazole] had a pEC50 with HIV-1 of less than 3.54.

`COCCCCCCCCCCCCO` [Example 88, 12-Methoxydodecanol] gave a pEC50 with HIV-1 of less than 3.35.

Compound `COCCCCCCCCCCCC(C)=O` [Example 89, 13-Methoxy-2-tridecanone] gave a pEC50 with HIV-1 of less than 3.37.

Source of the values: patent US5929110A, “Fatty acid analogs and prodrugs” (G. D. Searle & Co., priority 1998, dated 1999).
